Laboratory results published in ChEMBL document CHEMBL5665443, “Enzyme Inhibitor Single Concentration assay results for EUbOPEN Chemogenomics Library” (2024).

Columns and labels:
Conditions in all cases: Hit No
[1] = target: T1, Adenine DNA glycosylase (Homo sapiens) (UniProt Q9UIF7);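 note: human MUTYH activity read as 594 nm fluorescence from cleavage and release of a quenched DNA duplex, coupled with APE1 for strand incision, lower signal meaning inhibition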
T1 sequence (whole entry): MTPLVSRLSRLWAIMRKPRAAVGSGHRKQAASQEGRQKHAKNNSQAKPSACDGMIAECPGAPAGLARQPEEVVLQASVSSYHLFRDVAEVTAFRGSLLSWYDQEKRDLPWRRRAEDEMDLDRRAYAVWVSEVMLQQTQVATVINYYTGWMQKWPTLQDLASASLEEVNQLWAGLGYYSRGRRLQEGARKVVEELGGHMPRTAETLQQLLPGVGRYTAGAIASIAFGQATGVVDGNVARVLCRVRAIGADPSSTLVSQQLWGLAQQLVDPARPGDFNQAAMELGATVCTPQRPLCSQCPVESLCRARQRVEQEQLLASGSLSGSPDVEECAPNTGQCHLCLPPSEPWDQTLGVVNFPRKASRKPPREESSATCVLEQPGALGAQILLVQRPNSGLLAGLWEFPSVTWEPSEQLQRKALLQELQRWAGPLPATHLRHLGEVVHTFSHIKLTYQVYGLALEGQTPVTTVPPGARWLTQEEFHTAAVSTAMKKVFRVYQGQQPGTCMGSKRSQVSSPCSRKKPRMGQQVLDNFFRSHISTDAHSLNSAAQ
Description: Inhibition of MUTYH by quantifying inhibition of MUTYH-mediated cleavage and dissociation of quenched duplex DNA oligonucleotides, measured as fluorescence at 594 nm. To generate a functional strand incision and increase turn-over this assay is coupled to APE1.

[2] = target: T2, Endonuclease 8-like 2 (Homo sapiens) (UniProt Q969S2);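 note: fluorescence at 594 nm reports NEIL2 cutting and release of a quenched double-stranded DNA oligo substrate, reduced signal read as inhibition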
T2 sequence (whole entry): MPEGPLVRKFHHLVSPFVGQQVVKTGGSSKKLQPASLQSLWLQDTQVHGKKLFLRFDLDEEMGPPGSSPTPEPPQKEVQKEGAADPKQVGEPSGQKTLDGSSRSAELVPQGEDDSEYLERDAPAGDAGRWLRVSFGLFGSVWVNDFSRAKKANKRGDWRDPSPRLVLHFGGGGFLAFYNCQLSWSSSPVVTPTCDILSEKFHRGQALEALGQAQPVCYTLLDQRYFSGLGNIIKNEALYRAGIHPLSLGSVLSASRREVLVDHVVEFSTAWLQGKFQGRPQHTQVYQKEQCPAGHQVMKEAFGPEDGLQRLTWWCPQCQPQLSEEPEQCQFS
Description: Inhibition of NEIL2 by quantifying inhibition of NEIL2-mediated cleavage and dissociation of quenched duplex DNA oligonucleotides, measured as fluorescence at 594 nm.

[3] = target: Uracil-DNA glycosylase (Homo sapiens) (UniProt P13051);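 note: UNG excision on a quenched double-stranded DNA oligo probe, with APE1 added for strand incision and turnover, read as fluorescence at 594 nm as strands separate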
Sequence of Uracil-DNA glycosylase (Homo sapiens) (P13051 whole entry): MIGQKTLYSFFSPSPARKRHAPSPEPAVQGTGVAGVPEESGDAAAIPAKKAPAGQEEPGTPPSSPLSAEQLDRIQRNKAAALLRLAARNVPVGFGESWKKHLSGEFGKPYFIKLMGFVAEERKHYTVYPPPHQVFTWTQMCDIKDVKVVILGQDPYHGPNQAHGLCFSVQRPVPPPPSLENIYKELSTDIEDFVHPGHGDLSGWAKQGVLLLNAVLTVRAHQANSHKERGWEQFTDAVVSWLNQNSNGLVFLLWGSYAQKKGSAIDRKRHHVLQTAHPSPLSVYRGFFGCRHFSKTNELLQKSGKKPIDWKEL
Description: Inhibition of UNG by quantifying inhibition of UNG-mediated cleavage and dissociation of quenched duplex DNA oligonucleotides, measured as fluorescence at 594 nm. To generate a functional strand incision and increase turn-over this assay is coupled to APE1.

[4] = target: G/T mismatch-specific thymine DNA glycosylase (Homo sapiens) (UniProt Q13569);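 note: human TDG cleavage of quenched duplex DNA oligonucleotides coupled to APE1, strand release read as fluorescence at 594 nm, inhibition of TDG activity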
Sequence of G/T mismatch-specific thymine DNA glycosylase (Homo sapiens) (Q13569 whole entry): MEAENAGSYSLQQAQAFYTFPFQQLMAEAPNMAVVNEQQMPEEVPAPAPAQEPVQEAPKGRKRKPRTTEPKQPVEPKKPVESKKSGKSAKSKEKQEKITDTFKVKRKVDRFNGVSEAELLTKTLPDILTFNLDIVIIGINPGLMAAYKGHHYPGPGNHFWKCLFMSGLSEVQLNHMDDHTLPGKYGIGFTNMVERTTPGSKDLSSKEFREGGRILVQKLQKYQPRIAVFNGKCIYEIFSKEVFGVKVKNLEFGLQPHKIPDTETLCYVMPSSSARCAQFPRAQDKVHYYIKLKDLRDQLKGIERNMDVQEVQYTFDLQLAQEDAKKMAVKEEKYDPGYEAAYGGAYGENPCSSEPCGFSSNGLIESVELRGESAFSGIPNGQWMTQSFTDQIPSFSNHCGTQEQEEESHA
Description: Inhibition of TDG by quantifying inhibition of TDG-mediated cleavage and dissociation of quenched duplex DNA oligonucleotides, measured as fluorescence at 594 nm. To generate a functional strand incision and increase turn-over this assay is coupled to APE1.

[5] = target: T3, Single-strand selective monofunctional uracil DNA glycosylase (Homo sapiens) (UniProt Q53HV7);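 note: enzymatic SMUG1 assay coupled with APE1, reading fluorescence at 594 nm released when a quenched double-stranded DNA oligonucleotide substrate is cleaved and separated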
T3 sequence (whole entry): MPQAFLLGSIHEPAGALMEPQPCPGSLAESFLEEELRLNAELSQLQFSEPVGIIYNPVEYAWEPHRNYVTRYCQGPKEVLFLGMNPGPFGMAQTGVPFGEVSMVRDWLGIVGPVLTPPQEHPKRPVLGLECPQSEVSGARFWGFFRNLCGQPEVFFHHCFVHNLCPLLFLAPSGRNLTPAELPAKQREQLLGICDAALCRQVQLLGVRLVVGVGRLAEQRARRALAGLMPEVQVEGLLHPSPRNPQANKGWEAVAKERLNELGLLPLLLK
Description: Inhibition of SMUG1 by quantifying inhibition of SMUG1-mediated cleavage and dissociation of quenched duplex DNA oligonucleotides, measured as fluorescence at 594 nm. To generate a functional strand incision and increase turn-over this assay is coupled to APE1.

[6] = target: N-glycosylase/DNA lyase (Homo sapiens) (UniProt O15527);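 note: OGG1 cleavage of a quenched duplex DNA oligonucleotide, coupled to APE1 for strand incision, read as fluorescence at 594 nm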
Sequence of N-glycosylase/DNA lyase (Homo sapiens) (O15527 whole entry, the tested form may be a part): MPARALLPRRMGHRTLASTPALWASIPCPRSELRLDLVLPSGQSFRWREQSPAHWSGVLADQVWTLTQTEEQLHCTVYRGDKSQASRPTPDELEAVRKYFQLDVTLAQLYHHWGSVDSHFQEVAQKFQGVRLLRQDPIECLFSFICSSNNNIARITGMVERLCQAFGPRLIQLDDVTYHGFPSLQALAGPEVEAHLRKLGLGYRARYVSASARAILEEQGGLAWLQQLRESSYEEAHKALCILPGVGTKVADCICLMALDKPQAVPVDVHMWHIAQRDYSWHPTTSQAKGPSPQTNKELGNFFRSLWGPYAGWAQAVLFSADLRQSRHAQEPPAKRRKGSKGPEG
Description: Inhibition of OGG1 by quantifying inhibition of OGG1-mediated cleavage and dissociation of quenched duplex DNA oligonucleotides, measured as fluorescence at 594 nm. To generate a functional strand incision and increase turn-over this assay is coupled to APE1.

[7] = target: Methyl-CpG-binding domain protein 4 (Homo sapiens) (UniProt O95243);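 note: MBD4 activity read as fluorescence at 594 nm from cleavage and release of a quenched duplex DNA oligonucleotide, with APE1 coupled to incise the strand and raise turnover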
Sequence of Methyl-CpG-binding domain protein 4 (Homo sapiens) (O95243 whole entry, the tested form may be a part): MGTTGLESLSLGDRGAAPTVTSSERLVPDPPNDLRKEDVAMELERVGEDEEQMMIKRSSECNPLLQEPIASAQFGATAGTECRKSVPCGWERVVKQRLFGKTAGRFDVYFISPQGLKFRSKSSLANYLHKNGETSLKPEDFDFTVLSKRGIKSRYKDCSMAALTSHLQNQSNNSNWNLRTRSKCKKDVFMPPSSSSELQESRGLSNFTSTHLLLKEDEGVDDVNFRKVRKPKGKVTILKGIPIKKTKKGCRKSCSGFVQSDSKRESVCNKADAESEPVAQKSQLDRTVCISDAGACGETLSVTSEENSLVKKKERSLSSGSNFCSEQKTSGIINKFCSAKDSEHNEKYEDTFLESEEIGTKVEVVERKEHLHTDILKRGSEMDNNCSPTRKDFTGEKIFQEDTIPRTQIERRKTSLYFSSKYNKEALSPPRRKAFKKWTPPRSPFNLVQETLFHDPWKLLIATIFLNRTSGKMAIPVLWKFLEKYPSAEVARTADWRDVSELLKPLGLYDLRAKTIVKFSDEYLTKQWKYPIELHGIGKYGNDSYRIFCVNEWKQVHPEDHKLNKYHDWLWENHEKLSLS
Description: Inhibition of MBD4 by quantifying inhibition of MBD4-mediated cleavage and dissociation of quenched duplex DNA oligonucleotides, measured as fluorescence at 594 nm. To generate a functional strand incision and increase turn-over this assay is coupled to APE1.

[8] = target: T4, Endonuclease III-like protein 1 (Homo sapiens) (UniProt P78549);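 note: enzyme assay tracking NTHL1 cutting and release of a quenched double-stranded DNA oligo substrate, read as fluorescence at 594 nm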
T4 sequence (whole entry): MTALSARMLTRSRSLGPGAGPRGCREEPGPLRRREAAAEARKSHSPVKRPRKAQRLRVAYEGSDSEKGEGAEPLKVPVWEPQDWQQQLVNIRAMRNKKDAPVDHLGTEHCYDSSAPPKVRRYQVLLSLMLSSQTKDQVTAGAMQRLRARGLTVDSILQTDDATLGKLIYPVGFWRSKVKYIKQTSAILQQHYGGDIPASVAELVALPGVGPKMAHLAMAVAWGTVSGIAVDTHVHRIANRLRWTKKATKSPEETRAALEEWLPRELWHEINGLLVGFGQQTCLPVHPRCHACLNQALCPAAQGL
Description: Inhibition of NTHL1 by quantifying inhibition of NTHL1-mediated cleavage and dissociation of quenched duplex DNA oligonucleotides, measured as fluorescence at 594 nm.

With `Cn1cncc1[C@](O)(COc1ccc(C#N)cc1-c1ccc(OC(F)(F)F)cc1)c1ccc(C#N)cc1` the inhibition ([1]; Compound Concentration 10.0 uM) was -9.34%, the inhibition ([2]; Compound Concentration 10.0 uM) was 0.531% and the inhibition ([3]; Compound Concentration 10.0 uM) was -1.26%. It also gave an inhibition ([4]; Compound Concentration 10.0 uM) of 37.9%, an inhibition ([5]; Compound Concentration 10.0 uM) of -2.99% and an inhibition ([6]; Compound Concentration 10.0 uM) of 7.95%. For the same compound, the inhibition ([7]; Compound Concentration 10.0 uM) was 62% and the inhibition ([8]; Compound Concentration 10.0 uM) was 10.6%.

In the case of `CC1=C(C#N)C(c2ccc3[nH]nc(C)c3c2)C(C#N)=C(C)N1`, the inhibition ([1]; Compound Concentration 10.0 uM) is reported as 18.6%, the inhibition ([2]; Compound Concentration 10.0 uM) is reported as 1.25% and the inhibition ([3]; Compound Concentration 10.0 uM) is reported as 2.96%. The inhibition ([4]; Compound Concentration 10.0 uM) was 72.9%, the inhibition ([5]; Compound Concentration 10.0 uM) was 17.6% and the inhibition ([6]; Compound Concentration 10.0 uM) was 4.91%. The inhibition ([7]; Compound Concentration 10.0 uM) was 24.9% and the inhibition ([8]; Compound Concentration 10.0 uM) was 7.43%.

With `CCn1c(=O)c(C)cn(Cc2nnc(-c3ccc(F)c(OC)c3F)s2)c1=O` the inhibition ([1]; Compound Concentration 10.0 uM) was 5.03%, the inhibition ([2]; Compound Concentration 10.0 uM) was -5.85% and the inhibition ([3]; Compound Concentration 10.0 uM) was 2.54%. It also gave an inhibition ([4]; Compound Concentration 10.0 uM) of 20.6%, an inhibition ([5]; Compound Concentration 10.0 uM) of 17.9% and an inhibition ([6]; Compound Concentration 10.0 uM) of 7.36%. For the same compound, the inhibition ([7]; Compound Concentration 10.0 uM) was 72.7% and the inhibition ([8]; Compound Concentration 10.0 uM) was -4.57%.

Compound `COc1ccc(COc2ccc(Cc3cnc(N)nc3N)cc2OC)cc1` has an inhibition ([1]; Compound Concentration 10.0 uM) of -3.46%, an inhibition ([2]; Compound Concentration 10.0 uM) of -2.46% and an inhibition ([3]; Compound Concentration 10.0 uM) of -0.384%. It also gave an inhibition ([4]; Compound Concentration 10.0 uM) of 46.5%, an inhibition ([5]; Compound Concentration 10.0 uM) of 6.38% and an inhibition ([6]; Compound Concentration 10.0 uM) of 6.26%. It also gave an inhibition ([7]; Compound Concentration 10.0 uM) of 24.9% and an inhibition ([8]; Compound Concentration 10.0 uM) of -8.98%.

`CCS(=O)(=O)c1cc2cc(C[C@](O)(CC(C)(C)c3ccc(F)cc3C(N)=O)C(F)(F)F)[nH]c2cn1` showed an inhibition ([1]; Compound Concentration 10.0 uM) of -1.09%, an inhibition ([2]; Compound Concentration 10.0 uM) of -8.14% and an inhibition ([3]; Compound Concentration 10.0 uM) of -6.06%. For the same compound, the inhibition ([4]; Compound Concentration 10.0 uM) was 97.5%, the inhibition ([5]; Compound Concentration 10.0 uM) was 15.9% and the inhibition ([6]; Compound Concentration 10.0 uM) was -0.262%. The inhibition ([7]; Compound Concentration 10.0 uM) was 51.2% and the inhibition ([8]; Compound Concentration 10.0 uM) was 0.685%.

Compound `CC(C)C(=O)N1CCC(c2cn(C)c3ncc(NC(=O)c4cccc(C#N)c4)c(C(F)(F)F)c23)CC1` has an inhibition ([1]; Compound Concentration 10.0 uM) of 7.16%, an inhibition ([2]; Compound Concentration 10.0 uM) of -3.04% and an inhibition ([3]; Compound Concentration 10.0 uM) of 5.34%. For the same compound, the inhibition ([4]; Compound Concentration 10.0 uM) was 58.4%, the inhibition ([5]; Compound Concentration 10.0 uM) was 26.5% and the inhibition ([6]; Compound Concentration 10.0 uM) was 7.16%. It also gave an inhibition ([7]; Compound Concentration 10.0 uM) of 55.2% and an inhibition ([8]; Compound Concentration 10.0 uM) of 9.89%.

Work on `O=C(O)[C@H]1[C@H](Cn2nnc3ccccc3c2=O)CC[C@@H]1C(=O)c1ccc(OCCC2CCOCC2)cc1` yielded an inhibition ([1]; Compound Concentration 1.0 uM) of 7.33%, an inhibition ([2]; Compound Concentration 1.0 uM) of -9.93% and an inhibition ([3]; Compound Concentration 1.0 uM) of -2.04%. For the same compound, the inhibition ([4]; Compound Concentration 1.0 uM) was 51.4%, the inhibition ([5]; Compound Concentration 1.0 uM) was 17% and the inhibition ([6]; Compound Concentration 1.0 uM) was 2.93%. It also gave an inhibition ([7]; Compound Concentration 1.0 uM) of 58.9% and an inhibition ([8]; Compound Concentration 1.0 uM) of 2%.

With `CC(=O)N1CCC(c2ccc(C(=O)NC(=N)N)cc2C(F)(F)F)CC1` the inhibition ([1]; Compound Concentration 10.0 uM) was 0.114%, the inhibition ([2]; Compound Concentration 10.0 uM) was -0.744% and the inhibition ([3]; Compound Concentration 10.0 uM) was 3.89%. For the same compound, the inhibition ([4]; Compound Concentration 10.0 uM) was 47.6%, the inhibition ([5]; Compound Concentration 10.0 uM) was 16.4% and the inhibition ([6]; Compound Concentration 10.0 uM) was 3.38%. The inhibition ([7]; Compound Concentration 10.0 uM) was 58.8% and the inhibition ([8]; Compound Concentration 10.0 uM) was 5.94%.

In the case of `COc1nc2ccc([C@@](O)(c3ccccc3)C3CCN(C(C)=O)CC3)cc2c(Cl)c1Cc1ccc(-n2cccn2)cc1`, the inhibition ([1]; Compound Concentration 10.0 uM) is reported as 5.36%, the inhibition ([2]; Compound Concentration 10.0 uM) is reported as -7.63% and the inhibition ([3]; Compound Concentration 10.0 uM) is reported as 10.2%. For the same compound, the inhibition ([4]; Compound Concentration 10.0 uM) was 48.5%, the inhibition ([5]; Compound Concentration 10.0 uM) was 22.3% and the inhibition ([6]; Compound Concentration 10.0 uM) was 10.5%. It also gave an inhibition ([7]; Compound Concentration 10.0 uM) of 64.6% and an inhibition ([8]; Compound Concentration 10.0 uM) of -1.29%.

With `O=C(Nc1ccc(-n2nc(-c3cccnc3)cc2C(F)(F)F)cn1)c1ccc(-c2ccccc2)c(F)c1` the inhibition ([1]; Compound Concentration 1.0 uM) was -4.64%, the inhibition ([2]; Compound Concentration 1.0 uM) was 4.61% and the inhibition ([3]; Compound Concentration 1.0 uM) was 6.15%. For the same compound, the inhibition ([4]; Compound Concentration 1.0 uM) was 56.1%, the inhibition ([5]; Compound Concentration 1.0 uM) was 24.9% and the inhibition ([6]; Compound Concentration 1.0 uM) was 18.5%. It also gave an inhibition ([7]; Compound Concentration 1.0 uM) of 59.3% and an inhibition ([8]; Compound Concentration 1.0 uM) of 0.685%.

`CO[C@@H](C)c1c(Nc2ccc([C@H](N(C)C(=O)C3CCS(=O)(=O)CC3)C(F)(F)F)cc2)cnc2cc(Cl)nn12` showed an inhibition ([1]; Compound Concentration 10.0 uM) of -6.71%, an inhibition ([2]; Compound Concentration 10.0 uM) of 5.63% and an inhibition ([3]; Compound Concentration 10.0 uM) of -1.74%. The inhibition ([4]; Compound Concentration 10.0 uM) was 48.6%, the inhibition ([5]; Compound Concentration 10.0 uM) was -7.05% and the inhibition ([6]; Compound Concentration 10.0 uM) was -4%. The inhibition ([7]; Compound Concentration 10.0 uM) was 77.6% and the inhibition ([8]; Compound Concentration 10.0 uM) was -3.92%.

`C[C@@H]1CCN(C(=O)CC#N)C[C@@H]1N(C)c1ncnc2[nH]ccc12` gave an inhibition ([1]; Compound Concentration 1.0 uM) of 9.35%, an inhibition ([2]; Compound Concentration 1.0 uM) of -1.11% and an inhibition ([3]; Compound Concentration 1.0 uM) of 6.67%. For the same compound, the inhibition ([4]; Compound Concentration 1.0 uM) was 61.6%, the inhibition ([5]; Compound Concentration 1.0 uM) was 24.1% and the inhibition ([6]; Compound Concentration 1.0 uM) was 4.23%. For the same compound, the inhibition ([7]; Compound Concentration 1.0 uM) was 20.6% and the inhibition ([8]; Compound Concentration 1.0 uM) was 10.6%.
